Columns and labels:
Type in all cases: cell-based, human
MOLT-4 cells = assay: Alkaline comet assay, MOLT-4; settings: MOLT-4, 48 h, 80 nM
Method: Single cell gel electrophoresis (comet assay) was used to detect alkali labile sites, single and double DNA strand breaks, and cross-links induced by genotoxic agents. After electrophoresis and gel staining with 4,6-diamidino-2-phenylindole (DAPI), the released DNA was visible under a fluorescence microscope as a characteristic comet tail. The cells were plated on 24-well plates (20,000 cells/mL) and treated with CLA, CLA-FMOR, CLA-FPIP, or CLA-FPIR at the indicated concentrations for 2, 24, and 48 h at 37 °C. Some cells were preincubated with an ATR kinase inhibitor (VE-821) for 1 h at 37 °C before adding the tested compounds. Next, cells were collected into Eppendorf tubes and rinsed with PBS. Then, cells were suspended in 0.75% low melting point (LMP) agarose dissolved in PBS (pH 7.4) and placed on microscope slides precoated with 0.5% normal melting point (NMP) agarose. […] The slides were stored in a wet chamber at 4 °C and analyzed under a fluorescence microscope. Fifty randomly selected cells from each slide were measured using image analysis (Nikon, Japan) attached to a COHU 4910 video camera, which was equipped with a UV-1 filter block consisting of an excitation filter (359 nm) and a barrier filter (461 nm) connected to the image analysis system Lucia-Comet v. […] In the samples preincubated with VE-821, the level of DNA damage associated with the ATR kinase was determined.

dCK in HL-60 cells = assay: Deoxycytidine kinase activity, HL-60; settings: HL-60, 24 h incubation
Method: (§1) Deoxycytidine kinase activity was measured in accordance with the manufacturer’s protocol. The cells, at final concentration were plated at 1 × 10^6 cells per 24-well plates and cultured with the tested compounds for 24 h. Some cells were preincubated with an ATR kinase inhibitor (VE-821) for 1 h at 37 °C before adding the tested compounds. After drug treatment, the cells were washed with PBS and resuspended in an ice-cold cytosol extraction buffer containing 1 mM phenylmethylsulfonyl fluoride (PMSF) and a protease inhibitor cocktail. The cell lysate was centrifuged at 10,000 × g for 30 min at 4 °C. The protein concentration was determined using the Bradford method. The supernatant (cytosolic fraction) was collected and stored at −80 °C. The clarified cytoplasm extracts, dCK standards, and blank control were added to the appropriate microtiter plate wells with a biotin-conjugated polyclonal antibody prepared specifically for dCK. Avidin conjugated to horseradish peroxidase (HRP) was added to each microplate well and incubated. Then, a TMB substrate solution was added to the plate. […] The enzyme-substrate reaction was terminated by addition of a sulfuric acid solution. The color change was measured spectrophotometrically at a wavelength of 450 nm using a microplate reader (BioTek).

dCK in MOLT-4 cells = assay: Deoxycytidine kinase activity, MOLT-4; settings: MOLT-4, 24 h incubation
Method: as §1

[1] = test system: caspase-3/7 in MOLT-4 cells; assay: Caspase 3/7 assay, MOLT-4; settings: MOLT-4, 48 h
Method: The activities of caspases-3 and −7 were estimated with CellEvent™ Caspse-3/7 Green Detection Reagent (Thermo Fisher Scientific) according to the manufacturer’s protocol. The cells were seeded on 96-well plates (15 × 10^3/ well) and 24 h later, incubated with the appropriate drugs for 24 h or 48 h. The cells were fixed by adding a final concentration of 4% paraformaldehyde solution (10 min, room temperature). Cells were labeled with CellEvent™Caspase-3/7 Green Detection Reagent (5 µM), followed by Hoechst 33342 (5 µg/ml) for 15 minutes in complete medium3. Caspase-3/7 Green Detection Reagent was diluted into PBS with 5% FBS to avoid fluorescence background. […] Fluorescence intensity was measured using a Fluoroskan Ascent FL plate reader (Labsystem, Sweden). Cysteine protease activity was expressed as a ratio of fluorescence of the drug-treated samples to the corresponding untreated controls (taken as 100%). In some experimental variants, cells were preincubated for 1 h with VE-821 (10 µM) or Z-FA-FMK (caspas-3 inhibitor, 0.5 µM) to confirm that the fluorescence observed in both control and drug-treated cells was due to the presence of caspase-3/7 in samples. […]

For `OC[C@H]1O[C@@H](n2cnc3c(N=CN4CCOCC4)nc(Cl)nc32)C[C@@H]1O` [CLA-FMOR, [6-deamino-6-(N′, N′-3′-oxa-1′, 5′-pentamethyleneformamidine)] cladribine], the “DNA fragmentation, percentage of the DNA in the comet tail” value (MOLT-4 cells) was 27%, the dCK activity (dCK in HL-60 cells) was “highest dCK activity” and the dCK activity (dCK in MOLT-4 cells) was “highest dCK activity”. For the same molecule, the caspase-3/7 level [1] was “highest changes”.

From article PMC6773697, “Antileukemic activity of novel adenosine derivatives” (Scientific Reports, 2019)
